In patent US12673975B2, “Cyclic peptide, cell scaffold material, cell separating material, and medium” (FUJIFILM Corporation, priority 2019, dated 2026):
Read-outs that look alike come from different tables or passages of the source. Starred links: 1 amine or outer side, 2 acyl side, 3 side chain; linkers in the order of their positions; H or OH if unused. Positions of bridges follow the written chain, without caps; N, C: chain ends. Non-standard residues stand in square brackets, D forms with d. Residues, ends and D or L forms follow the SMILES beside them. hCys = N[C@@H](CCS)C(=O)O; Dab = NCC[C@H](N)C(=O)O; X1 = O=C(C[*:2])[*:1]; X2 = O=C(C[*:1])[*:2]; βAla = NCCC(=O)O

Experiments:
human integrin αvβ5 = human integrin αvβ5 (Homo sapiens, UniProt P06756+P18084); assay: Evaluation of integrin binding property (surface plasmon resonance, Biacore 3000, immobilized cyclic peptide)
In short: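 SPR with cyclic peptide amine-coupled via EDC/NHS to a CM5 chip, blank channel as reference. Integrin αvβ5 at 30, 100, 300 and 1,000 nM injected 10 min at 25 °C in HEPES buffer pH 7.4 with 5 mM MgCl2, 30 min buffer flow, EDTA regeneration; Kd from reference-subtracted signals, graded by category.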

[1] = Evaluation of molecule stability (alkali treatment, residual rate by LC/MS); assay type: physicochemical; conditions: for Performance evaluation: Stability (residual rate of cyclic peptide after alkali treatment): 500 μM peptide aqueous solution plus equivalent of 1 M sodium hydroxide, 15° C., 3 hours, LC/MS peak area; for Stability (molecule stability, residual rate of the cyclic peptide rank): alkali treatment, residual rate by LC/MS
In short: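 500 μM aqueous cyclic peptide mixed with an equal volume of 1 M NaOH and held 3 h at 15 °C. Residual rate is total LC/MS peak area after treatment relative to untreated (100%), using a C18 column, pH 3 ammonium formate/acetonitrile gradient, 45 °C, ESI±.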

[2] = SPR, 25° C., HEPES buffer with 5 mM magnesium chloride, integrin 30-1,000 nM, read-out: Performance evaluation: Binding activity (dissociation constant between the cyclic peptide and human integrin αvβ5)
[3] = surface plasmon resonance, immobilized cyclic peptide, human integrin αvβ5, read-out: Binding activity (integrin binding property, dissociation constant rank)

Sequence of human integrin αvβ5 (P06756 31-1048): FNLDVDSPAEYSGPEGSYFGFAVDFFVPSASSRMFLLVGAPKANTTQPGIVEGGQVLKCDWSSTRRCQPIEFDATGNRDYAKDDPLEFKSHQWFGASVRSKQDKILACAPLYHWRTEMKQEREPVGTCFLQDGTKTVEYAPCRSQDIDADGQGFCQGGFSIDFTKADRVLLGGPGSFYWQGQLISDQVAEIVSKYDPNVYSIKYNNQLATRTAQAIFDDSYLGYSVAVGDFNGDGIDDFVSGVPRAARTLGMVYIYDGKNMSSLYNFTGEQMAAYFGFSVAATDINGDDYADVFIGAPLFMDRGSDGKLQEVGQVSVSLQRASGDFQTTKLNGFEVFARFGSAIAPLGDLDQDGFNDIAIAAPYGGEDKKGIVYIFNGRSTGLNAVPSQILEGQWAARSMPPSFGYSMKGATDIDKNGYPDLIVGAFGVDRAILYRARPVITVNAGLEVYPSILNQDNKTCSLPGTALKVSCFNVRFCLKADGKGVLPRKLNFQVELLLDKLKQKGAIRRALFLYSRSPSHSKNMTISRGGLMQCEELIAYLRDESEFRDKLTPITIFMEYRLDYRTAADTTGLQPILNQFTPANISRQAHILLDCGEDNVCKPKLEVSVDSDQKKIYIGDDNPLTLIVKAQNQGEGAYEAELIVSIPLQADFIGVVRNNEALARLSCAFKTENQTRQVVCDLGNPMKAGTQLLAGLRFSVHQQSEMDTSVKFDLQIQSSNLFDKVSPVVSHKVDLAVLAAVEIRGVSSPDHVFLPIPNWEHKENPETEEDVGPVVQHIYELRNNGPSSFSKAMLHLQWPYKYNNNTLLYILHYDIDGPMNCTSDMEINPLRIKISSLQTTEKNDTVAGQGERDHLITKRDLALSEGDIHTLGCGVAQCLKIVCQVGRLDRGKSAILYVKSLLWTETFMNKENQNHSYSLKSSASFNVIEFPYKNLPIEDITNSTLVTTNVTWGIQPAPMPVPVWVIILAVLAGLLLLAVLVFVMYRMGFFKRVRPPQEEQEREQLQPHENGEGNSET
Sequence of human integrin αvβ5 (P18084 24-799): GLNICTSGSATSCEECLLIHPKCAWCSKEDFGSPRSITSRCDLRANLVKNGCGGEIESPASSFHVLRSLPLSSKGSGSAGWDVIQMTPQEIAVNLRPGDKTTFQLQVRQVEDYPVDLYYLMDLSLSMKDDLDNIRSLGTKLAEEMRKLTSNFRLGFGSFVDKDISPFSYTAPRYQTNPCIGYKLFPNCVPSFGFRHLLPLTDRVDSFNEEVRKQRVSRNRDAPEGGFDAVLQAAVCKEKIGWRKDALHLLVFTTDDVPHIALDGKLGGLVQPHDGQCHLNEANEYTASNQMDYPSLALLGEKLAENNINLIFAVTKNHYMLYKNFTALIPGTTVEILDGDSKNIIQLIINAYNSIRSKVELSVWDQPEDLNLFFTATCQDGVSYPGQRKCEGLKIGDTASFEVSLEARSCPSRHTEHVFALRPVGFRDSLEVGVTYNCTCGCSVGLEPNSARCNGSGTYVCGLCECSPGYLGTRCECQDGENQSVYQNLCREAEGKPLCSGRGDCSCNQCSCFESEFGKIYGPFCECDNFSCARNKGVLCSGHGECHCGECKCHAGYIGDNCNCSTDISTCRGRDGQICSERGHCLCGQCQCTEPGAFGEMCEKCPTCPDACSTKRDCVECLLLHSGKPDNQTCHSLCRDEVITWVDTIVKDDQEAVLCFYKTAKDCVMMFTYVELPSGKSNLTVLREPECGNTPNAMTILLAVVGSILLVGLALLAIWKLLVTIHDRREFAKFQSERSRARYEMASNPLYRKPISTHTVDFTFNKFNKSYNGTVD

Kd (human integrin αvβ5; [2]) [nM]	Kd (human integrin αvβ5; [3]) [nM]	Structure (SMILES)	Performance evaluation: Stability (residual rate of cyclic peptide after alkali treatment) [1]	Stability (molecule stability, residual rate of the cyclic peptide rank) [1]
50 to 100	–	C[C@H](NC(=O)[C@H](CCCCN)NC(=O)[C@H](CCCCN)NC(=O)[C@@H](N)CCCCN)C(=O)N[C@H]1CCSCC(=O)NCC[C@@H](C(=O)N[C@@H](CC(=O)O)C(=O)O)NC(=O)[C@H](CCC(=O)O)NC(=O)[C@H](Cc2ccc(O)cc2)NC(=O)[C@H](CC(N)=O)NC(=O)[C@H](CC(=O)O)NC(=O)CNC(=O)[C@H](CCCNC(=N)N)NC(=O)[C@@H]2CCCN2C(=O)[C@H](CCC(=O)O)NC1=O [Cyclic peptide 36, KKKA-(Hcy)-EPRGDNYE(Dab(acetyl))D] (H-KKKA[hCys]EPRGDNYE[Dab]D-OH; linker 5-14 via X2)	A (The residual rate of the cyclic peptide is 70% or more.)	–
50 to 100	–	CC[C@H](C)[C@@H]1NC(=O)[C@@H](NC(=O)[C@H](C)NC(=O)[C@H](CCCCN)NC(=O)[C@H](CCCCN)NC(=O)[C@@H](N)CCCCN)CCSCC(=O)NCC[C@@H](C(=O)N[C@@H](C)C(=O)O)NC(=O)[C@H](CCCNC(=N)N)NC(=O)[C@H](Cc2ccccc2)NC(=O)[C@H]([C@@H](C)O)NC(=O)[C@H](CC(=O)O)NC(=O)CNC(=O)[C@H](CCCNC(=N)N)NC(=O)[C@H]([C@@H](C)O)NC1=O [Cyclic peptide 76, KKKA-(Hcy)-ITRGDTFR(Dab(acetyl))A] (H-KKKA[hCys]ITRGDTFR[Dab]A-OH; linker 5-14 via X2)	A (The residual rate of the cyclic peptide is 70% or more.)	–
< 50	–	N=C(N)NCCC[C@@H]1NC(=O)[C@H](Cc2ccc(O)cc2)NC(=O)[C@H](CC(N)=O)NC(=O)[C@H](CC(=O)O)NC(=O)CNC(=O)[C@H](CCCNC(=N)N)NC(=O)[C@@H]2CCCN2C(=O)[C@H](CCC(=O)O)NC(=O)[C@@H](NC(=O)[C@H](CCC(=O)O)NC(=O)[C@H](CCCCN)NC(=O)[C@H](CCCCN)NC(=O)[C@@H](N)CCCCN)CCSCC(=O)NCC[C@@H](C(=O)N[C@@H](CC(=O)O)C(=O)O)NC1=O [Cyclic peptide 39, KKKE-(Hcy)-EPRGDNYR(Dab(acetyl))D] (H-KKKE[hCys]EPRGDNYR[Dab]D-OH; linker 5-14 via X2)	A (The residual rate of the cyclic peptide is 70% or more.)	–
100 to 200	–	N=C(N)NCCC[C@@H]1NC(=O)[C@H](Cc2ccc(O)cc2)NC(=O)[C@H](CC(N)=O)NC(=O)[C@H](CC(=O)O)NC(=O)CNC(=O)[C@H](CCCNC(=N)N)NC(=O)[C@@H]2CCCN2C(=O)[C@H](CCC(=O)O)NC(=O)[C@@H](NC(=O)CCNC(=O)[C@H](CCCCN)NC(=O)[C@H](CCCCN)NC(=O)[C@@H](N)CCCCN)CCSCC(=O)NCC[C@@H](C(N)=O)NC1=O [Cyclic peptide 51, KKKβA-(Hcy)-EPRGDNYR(Dab(acetyl))] (H-KKK[βAla][hCys]EPRGDNYR[Dab]-NH2; linker 5-14 via X2)	A (The residual rate of the cyclic peptide is 70% or more.)	–
< 50	–	CC[C@H](C)[C@@H]1NC(=O)[C@@H](NC(=O)[C@H](CCCCN)NC(=O)[C@H](CCCCN)NC(=O)[C@@H](N)CCCCN)CCSCC(=O)NCC[C@@H](C(=O)N[C@@H](C)C(=O)O)NC(=O)[C@H](C)NC(=O)[C@H](C)NC(=O)[C@H](CCCNC(=N)N)NC(=O)[C@H](Cc2ccccc2)NC(=O)[C@H](CC(N)=O)NC(=O)[C@H](CC(=O)O)NC(=O)CNC(=O)[C@H](CCCNC(=N)N)NC(=O)[C@@H]2CCCN2C1=O [Cyclic peptide 19, KKK-(Hcy)-IPRGDNFRAA(Dab(acetyl))A] (H-KKK[hCys]IPRGDNFRAA[Dab]A-OH; linker 4-15 via X2)	A (The residual rate of the cyclic peptide is 70% or more.)	–
< 50	–	CC[C@H](C)[C@@H]1NC(=O)[C@@H](NC(=O)CNC(=O)[C@H](CCCCN)NC(=O)[C@H](CCCCN)NC(=O)[C@@H](N)CCCCN)CCSCC(=O)NCC[C@@H](C(=O)N[C@@H](C)C(=O)O)NC(=O)[C@H](CCCNC(=N)N)NC(=O)[C@H](Cc2ccccc2)NC(=O)[C@H](CC(N)=O)NC(=O)[C@H](CC(=O)O)NC(=O)CNC(=O)[C@H](CCCNC(=N)N)NC(=O)[C@@H]2CCCN2C1=O [Cyclic peptide 1, KKKG-(Hcy)-IPRGDNFR(Dab(acetyl))A] (H-KKKG[hCys]IPRGDNFR[Dab]A-OH; linker 5-14 via X2)	A (The residual rate of the cyclic peptide is 70% or more.)	–
50 to 100	–	CC[C@H](C)[C@@H]1NC(=O)[C@@H](NC(=O)[C@H](C)NC(=O)[C@H](CCCCN)NC(=O)[C@H](CCCCN)NC(=O)[C@@H](N)CCCCN)CCSCC(=O)NCC[C@@H](C(=O)N[C@@H](C)C(=O)O)NC(=O)[C@H](CCCNC(=N)N)NC(=O)[C@H](Cc2ccccc2)NC(=O)[C@H](C)NC(=O)[C@H](CC(=O)O)NC(=O)CNC(=O)[C@H](CCCNC(=N)N)NC(=O)[C@@H]2CCCN2C1=O [Cyclic peptide 79, KKKA-(Hcy)-IPRGDAFR(Dab(acetyl))A] (H-KKKA[hCys]IPRGDAFR[Dab]A-OH; linker 5-14 via X2)	A (The residual rate of the cyclic peptide is 70% or more.)	–
–	< 50	CC(C)[C@@H]1NC(=O)[C@@H](NC(=O)[C@H](CCCCN)NC(=O)[C@H](CCCCN)NC(=O)[C@@H](N)CCCCN)CCSCC(=O)NCC[C@@H](C(=O)O)NC(=O)[C@H](CO)NC(=O)[C@H](Cc2ccccc2)NC(=O)[C@H]([C@@H](C)O)NC(=O)[C@H](CC(=O)O)NC(=O)CNC(=O)[C@H](CCCNC(=N)N)NC(=O)[C@@H]2CCCN2C1=O [Cyclic peptide 153, KKK-(Hcy)-VPRGDTFS(Dab(acetyl))] (H-KKK[hCys]VPRGDTFS[Dab]-OH; linker 4-13 via X2)	–	A (The residual rate of the cyclic peptide is 70% or more.)
< 50	–	CC(C)[C@@H]1NC(=O)[C@@H](NC(=O)[C@H](C)NC(=O)[C@H](CCCCN)NC(=O)[C@H](CCCCN)NC(=O)[C@@H](N)CCCCN)CCSCC(=O)NCC[C@@H](C(=O)N[C@@H](C)C(=O)O)NC(=O)[C@H](CCCNC(=N)N)NC(=O)[C@H](Cc2ccccc2)NC(=O)[C@H]([C@@H](C)O)NC(=O)[C@H](CC(=O)O)NC(=O)CNC(=O)[C@H](CCCNC(=N)N)NC(=O)[C@@H]2CCCN2C1=O [Cyclic peptide 74, KKKA-(Hcy)-VPRGDTFR(Dab(acetyl))A] (H-KKKA[hCys]VPRGDTFR[Dab]A-OH; linker 5-14 via X2)	A (The residual rate of the cyclic peptide is 70% or more.)	–
–	< 50	CC(C)[C@@H]1NC(=O)[C@@H](NC(=O)[C@H](CCCCN)NC(=O)[C@H](CCCCN)NC(=O)[C@@H](N)CCCCN)CCNC(=O)CSC[C@@H](C(=O)O)NC(=O)[C@H](Cc2ccccc2)NC(=O)[C@H](CC(N)=O)NC(=O)[C@H](CC(=O)O)NC(=O)CNC(=O)[C@H](CCCNC(=N)N)NC(=O)[C@@H]2CCCN2C1=O [Cyclic peptide 143, KKK(Dab(acetyl))VPRGDNF(C)] (H-KKK[Dab]VPRGDNFC-OH; linker 4-12 via X1)	–	C (The residual rate of the cyclic peptide is 30% or more and less than 50%.)
50 to 100	–	CC[C@H](C)[C@@H]1NC(=O)[C@@H](NC(=O)[C@H](CCCCN)NC(=O)[C@H](CCCCN)NC(=O)[C@@H](N)CCCCN)CCSCC(=O)NCC[C@@H](C(=O)N[C@@H](C)C(=O)O)NC(=O)[C@H](C)NC(=O)[C@H](CCCNC(=N)N)NC(=O)[C@H](Cc2ccccc2)NC(=O)[C@H](CC(N)=O)NC(=O)[C@H](CC(=O)O)NC(=O)CNC(=O)[C@H](CCCNC(=N)N)NC(=O)[C@@H]2CCCN2C1=O [Cyclic peptide 16, KKK-(Hcy)-IPRGDNFRA(Dab(acetyl))A] (H-KKK[hCys]IPRGDNFRA[Dab]A-OH; linker 4-14 via X2)	A (The residual rate of the cyclic peptide is 70% or more.)	–
< 50	–	CC[C@H](C)[C@@H]1NC(=O)[C@@H](NC(=O)[C@H](CCCCN)NC(=O)[C@H](CCCCN)NC(=O)[C@@H](N)CCCCN)CCSCC(=O)NCC[C@@H](C(=O)O)NC(=O)[C@H](CCCNC(=N)N)NC(=O)[C@H](Cc2ccccc2)NC(=O)[C@H](CC(N)=O)NC(=O)[C@H](CC(=O)O)NC(=O)CNC(=O)[C@H](CCCNC(=N)N)NC(=O)[C@@H]2CCCN2C1=O [Cyclic peptide 11, KKK-(Hcy)-IPRGDNFR(Dab(acetyl))] (H-KKK[hCys]IPRGDNFR[Dab]-OH; linker 4-13 via X2)	A (The residual rate of the cyclic peptide is 70% or more.)	–
< 50	–	CC[C@H](C)[C@@H]1NC(=O)[C@@H](NC(=O)[C@H](C)N)CCSCC(=O)NCC[C@@H](C(=O)N[C@@H](C)C(=O)N[C@@H](CCCCN)C(=O)N[C@@H](CCCCN)C(=O)N[C@@H](CCCCN)C(=O)O)NC(=O)[C@H](C)NC(=O)[C@H](Cc2ccccc2)NC(=O)[C@H](CO)NC(=O)[C@H](CC(=O)O)NC(=O)CNC(=O)[C@H](CCCNC(=N)N)NC(=O)[C@@H]2CCCN2C1=O [Cyclic peptide 100, A-(Hcy)-IPRGDSFA(Dab(acetyl))AKKK] (H-A[hCys]IPRGDSFA[Dab]AKKK-OH; linker 2-11 via X2)	A (The residual rate of the cyclic peptide is 70% or more.)	–
